Data as given in US20140288026A1, “IN[…]” (MAGNA E[…]., priority 2011, published 2014).

Assay: Hydrolysis of dilute aqueous insecticide solution (EPA OPPT 835.2130 Hydrolysis as a Function of pH and Temperature)
Assay type: physicochemical
Conditions: for Bifenthrin remaining: same solution plus 220ppm polymer particles (55% solids vinyl acetate-ethylene copolymer latex, Tg 10° C.)
Procedure: In fact, we have made dilute aqueous solutions of Bifenthrin (0.0895 ppm at pH 11.0) in accordance with EPA Fate, Transport and Transformation Test Guidelines OPPT 835.2130 Hydrolysis as a Function of pH and Temperature. After 5 hours at 25° C. only 45% of the insecticide could be detected in the solution and after 15 hours only 12% remained.

Cc1c(COC(=O)[C@@H]2[C@H](/C=C(\Cl)C(F)(F)F)C2(C)C)cccc1-c1ccccc1 (racemic) [Bifenthrin]
insecticide detected in the solution (0.0895 ppm aqueous solution at pH 11.0, 25° C., after 5 hours, no polymer particles): 45%
insecticide remaining in the solution (0.0895 ppm aqueous solution at pH 11.0, 25° C., after 15 hours, no polymer particles): 12%
Bifenthrin remaining (after 5 hours): 95%
Bifenthrin remaining (after 15 hours): 93%
